Assay results reported in patent publication US6630140B1, “Compositions and methods for treatment of asthma” (The Children's Hospital of Philadelphia, priority 1998, dated 2003).
Counter-ions that a name gives are not always drawn.

Assays:
[1] = tested on: tracheal smooth muscle (TSM) segments; experiment: Cholinergic contractility of isolated TSM segments to cumulative ACh (organ bath, isometric tension); assay type: cell-based, rabbit
Protocol: Rabbits were anesthetized with xylazine (10 mg/kg) and ketarnine (50 mg/kg) and were subsequently sacrificed using an overdose of pentobarbital (130 mg/kg). The tracheae of the rabbits were removed via open thoracotomy, the tracheae were cleared of loose connective tissue and were divided into eight ring segments of 6-8 mm length. […]
Following incubation of the tissue preparations obtained as described herein, each rabbit airway segment was suspended longitudinally between stainless steel triangular supports in siliconized Harvard 20 ml organ baths. […] Care was taken to place the membranous portion of the trachea between the supports in order to maximize the recorded tension generated by the contracting trachealis muscle. […]

[2] = tested on: tracheal smooth muscle (TSM) segments; experiment: Relaxation dose-response to isoproterenol in TSM segments half-maximally contracted with ACh; assay type: cell-based, rabbit
Protocol: Rabbits were anesthetized with xylazine (10 mg/kg) and ketarnine (50 mg/kg) and were subsequently sacrificed using an overdose of pentobarbital (130 mg/kg). The tracheae of the rabbits were removed via open thoracotomy, the tracheae were cleared of loose connective tissue and were divided into eight ring segments of 6-8 mm length. Each segment referred to herein as a tracheal smooth muscle (TSM) segment was incubated for 24 hours at room temperature in either of the following: 1) human serum containing immunoglobulin (Ig) E at greater than 1000 IU/ml which was obtained from allergic patients having moderate to severe asthma and a 4-5/6+radioallergosorbent test (RAST) positive (having a specific IgE concentration of more than 17.5 Phadebas RAST units (PRU)/ml) to Dermatophagoides pteronyssimus, Dermatophagoides farinae and ragweed, and a positive skin test to these antigens; or 2) human serum obtained from non-atopic, non-asthmatic individuals having normal serum IgE levels (i.e., <70 IU/ml) and negative skin test reactivity to Dermatophagoides pteronyssimus, Dermatophagoides farinae and ragweed (Hakonarson et al. 1995, Am. J. Physiol. (Lung Cell Mol. Physiol.) 269:L645-L652).
In parallel experiments, TSM segments were incubated in either control serum or in atopic asthmatic serum that was: a) depleted of its immunoglobulin complexes by pretreatment with sepharose Staphylococcus protein A as described (Kessler, 1975, J. Immunol. 1 15:161.7-1624); b) co-incubated with an anti-CD23 (40 μg/ml) monoclonal blocking antibody; or c) with an anti-CD 16 (2 μg/ml) monoclonal blocking antibody. The TSM segments were treated with their respective anti-CD23 or anti-CD16 antibodies in Dulbecco's modified Eagle's medium for 1 hour prior to exposure to the atopic asthmatic serum.
In extended experiments, paired TSM segments were incubated for 24 hours in Dulbecco's modified Eagle's medium, as previously described (Hakonarson et al., 1996, J. Clin. Invest. 97:2593-2600), containing either: a) human IgE (final bath concentration (FBC): 15 μg/ml); or b) human IgE-goat-anti-human IgE immune complexes (FBC: 15:5 μg/ml of IgE/anti-IgE in the final organ bath mixture). Tissues incubated in medium alone served as controls. The concentrations of immune complexes used for the TSM incubations were based on the results obtained in pilot studies which were designed to determine the concentration and ratio of immune complexes that induced the greatest acute contractile effect in isolated sensitized TSM segments. The serum was aerated with a continuous supplemental O2 mixture (95% O2/5% CO2) during the incubation phase.
Following incubation of the tissue preparations obtained as described herein, each rabbit airway segment was suspended longitudinally between stainless steel triangular supports in siliconized Harvard 20 ml organ baths. […] Care was taken to place the membranous portion of the trachea between the supports in order to maximize the recorded tension generated by the contracting trachealis muscle. The tissues were bathed in modified Krebs-Ringer solution containing 125 mM NaCl, 14 mM NaHCO3, 4 mM KCl, 2.25 mM CaCl2.H2O, 1.46 MgSO4.H2O, 1.2 mM NaH2PO4.H2O and 11 mM glucose. The baths were aerated with 5% CO2 in oxygen, a pH of 7.35-7.40 was maintained, and the organ bath temperature was held at 37° C. Passive resting tension of each TSM segment was set at 2.0 g after each tissue had been passively stretched to a tension of 8 g in order to optimize the resting length of each segment as described (Tanaka et al., 1990, J. Clin. Invest. 85:345-350). The tissues were allowed to equilibrate in the organ baths for 45 minutes, at which time each tissue was primed with a 1 minute exposure to 10−4 M acetylcholine (ACh). […]

[3] = TSM incubated with control serum

Question: How did the “Effect on contractility of the tissue to ACh” value [1, 3] turn out when “SpA: Sepharose Staphylococcus protein A used to deplete the sensitizing serum of its immune complexes” was run?
Answer: The value was “neither anti-CD23 MAb nor pretreatment of the control serum with SpA affected”.

Question: And the “Effect on the induced augmented constrictor responses to ACh” value ([1]; atopic asthmatic serum-sensitized TSM, tissue pretreated with antibody (anti-CD23 40 μg/ml, anti-CD16 2 μg/ml) or serum pre-treated with SpA)?
Answer: The value was “largely prevented”.

Question: What about the “Effect on relaxation responsiveness to isoproterenol” value [2, 3] of the same compound?
Answer: Its value is “neither anti-CD23 MAb nor pretreatment of the control serum with SpA affected”.

Question: What about the “Effect on the attenuated isoproterenol-induced relaxation responses” value ([2]; atopic asthmatic serum-sensitized TSM, tissue pretreated with antibody (anti-CD23 40 μg/ml, anti-CD16 2 μg/ml) or serum depleted with SpA) of the same compound?
Answer: The value was “ablated”.

Question: Which results are given for `CC(C)NCC(O)c1ccc(O)c(O)c1` (centres unmarked) [isoproterenol, isoproterenol hydrochloride]?
Answer: Rmax (% maximal relaxation) for isoproterenol ([2]; IgE immune complex-treated TSM (15:5 μg/ml, 24 h)): 36.8±10.4%; Rmax (% maximal relaxation) for isoproterenol ([2]; atopic asthmatic serum-sensitized TSM): 26.0±5.1%; Rmax (% maximal relaxation) for isoproterenol ([2]; control TSM, vehicle alone 24 h): 67.8±6.0%; Rmax (% maximal relaxation) for isoproterenol ([2]; control serum-treated TSM): 47.0±4.7%
